Read-outs that look alike come from different tables or passages of the source.
How the values were obtained:
CDK1/CycB = CDK1/CycB (Homo sapiens (Human), UniProt P06493); test: CDK1/CycB kinase assay (Assay 1); type: biochemical; settings: read-out: CDK1/CycB (Assay 1) Concentration of the half-maximal inhibition of the enzyme activity, IC50
Description: CDK1/CycB (200 ng/measuring point) was incubated for 10 min at 22° C. in the presence of different concentrations of test substances (0 and within the range 0.001-10 μM) in assay buffer [50 mM Tris/HCl pH 8.0; 10 mM MgCl2; 0.1 mM Na ortho-vanadate; 1.0 mM dithiothreitol; 0.5 μM adenosine trisphosphate (ATP); 10 μg/measuring point histone IIIS; 0.2 μCi/measuring point ^33P-gamma ATP; 0.05% NP40; 1.25% dimethyl sulphoxide]. The reaction was stopped by adding EDTA solution (250 mM; pH 8.0; 15 μl/measuring point).
From each reaction mixture, 15 μl were applied to P30 filter strips (Wallac), and unincorporated ^33P-ATP was removed by washing the filter strips three times, for 10 min in each case, in 0.5% phosphoric acid. After drying the filter strips for 1 hour at 70°, the filter strips were covered with scintillator strips (MeltiLex™ A, Wallac) and stoved for 1 hour at 90° C. The amount of incorporated ^33P (substrate phosphorylation) was determined by scintillation measurement in a gamma-radiation measuring instrument (Wallac). […] The IC50 values were determined by means of a 4-parameter fit using the company's own software.

CDK2/CycE = CDK2/CycE (Homo sapiens (Human), UniProt P24941); test: CDK2/CycE kinase assay (Assay 2); type: biochemical; settings: read-out: CDK2/CycE (Assay 2) Concentration of the half-maximal inhibition of the enzyme activity, IC50
Description: Recombinant CDK2 and CycE-GST fusion proteins, purified from baculovirus-infected insect cells (Sf9), were purchased from ProQinase GmbH, Freiburg. Histone IIIS, which was used as kinase substrate, was purchased from Sigma.
CDK2/CycE (50 mg/measuring point) was incubated for 10 min at 22° C. in the presence of different concentrations of test substances (0 μM, and within the range 0.001-10 μM) in assay buffer [50 mM Tris/HCl pH 8.0; 10 mM MgCl2; 0.1 mM Na ortho-vanadate; 1.0 mM dithiothreitol; 0.5 μM adenosine trisphosphate (ATP); 10 μg/measuring point histone IIIS; 0.2 μCi/measuring point ^33P-gamma ATP; 0.05% NP40; 1.25% dimethyl sulphoxide]. The reaction was stopped by adding EDTA solution (250 mM; pH 8.0; 15 μl/measuring point).
(§2) From each reaction mixture, 15 μl were applied to P30 filter strips (Wallac), and unincorporated ^33P-ATP was removed by washing the filter strips three times, for 10 min in each case, in 0.5% phosphoric acid. After drying the filter strips for 1 hour at 70° C., the filter strips were covered with scintillator strips (MeltiLex™ A, Wallac) and stoved for 1 hour at 90° C. The amount of incorporated ^33P (substrate phosphorylation) was determined by scintillation measurement in a gamma-radiation measuring instrument (Wallac). […] The IC50 values were determined by means of a 4-parameter fit using the company's own software.

[1] = test system: MCF7, hormone-independent human breast carcinoma cells; test: Proliferation assay (Assay 5), MCF7; type: cell-based; settings: read-out: Concentration of the half-maximal inhibition of the cell proliferation, IC50
From the text: (§1) Cultivated human tumour cells (MCF7, hormone-independent human breast carcinoma cells, acquired from ATCC HTB22; NCI-H460, human non-small-cell lung carcinoma cells, ATCC HTB-177; DU 145, hormone-independent human prostrate carcinoma cells, ATCC HTB-81; HeLa-MaTu, human cervix carcinoma cells, EPO-GmbH, Berlin; HeLa-MaTu-MDR, multiple drug-resistant human cervix carcinoma cells, EPO-GmbH, Berlin; Caco-2, human colon carcinoma cells, ATCC HTB-37; B16F10, murine melanoma cell, ATCC CRL-6475) were plated out at a density of ca. 1000-5000 cells/measuring point, depending on the growth rate of the particular cells, in a 96-well multititre plate in 200 μl of the corresponding growth medium. After 24 hours, the cells of one plate (zero-point plate) were stained with crystal violet (see below), whereas the medium of the other plates was replaced with fresh culture medium (200 μl), to which the test substances had been added at different concentrations (0 μM, and in the range 0.003-3 μM; the final concentration of the solvent dimethyl sulphoxide was 0.5%). The cells were incubated for 4 days in the presence of the test substances. Cell proliferation was determined by staining the cells with crystal violet: the cells were fixed by adding 20 μl/measuring point of an 11% glutaraldehyde solution for 15 min at room temperature. After washing the fixed cells with water three times, the plates were dried at room temperature. The cells were stained by adding 100 μl/measuring point of a 0.1% crystal violet solution (pH adjusted to pH 3 by adding acetic acid). After washing the stained cells with water three times, the plates were dried at room temperature. The dye was dissolved by adding 100 μl/measuring point of a 10% acetic acid solution. The extinction was determined photometrically at a wavelength of 595 nm. […] The IC50 values were determined by means of a 4-parameter fit using the company's own software.

[2] = test system: HeLa-MaTu-ADR (HeLa-MaTu-MDR, multiple drug-resistant human cervix carcinoma cells); test: Proliferation assay (Assay 5), HeLa-MaTu-ADR; type: cell-based; settings: 96 h, HeLa-MaTu-ADR, 4 days, read-out: Concentration of the half-maximal inhibition of the cell proliferation, IC50
From the text: as §1

[3] = test system: NCI-H460, human non-small-cell lung carcinoma cells; test: Proliferation assay (Assay 5), NCI-H460; type: cell-based; settings: 96 h, NCI-H460, 4 days, read-out: Concentration of the half-maximal inhibition of the cell proliferation, IC50
From the text: as §1

[4] = test system: DU 145, hormone-independent human prostrate carcinoma cells; test: Proliferation assay (Assay 5), DU145; type: cell-based; settings: DU-145, 96 h, DU145, 4 days, read-out: Concentration of the half-maximal inhibition of the cell proliferation, IC50
From the text: as §1

[5] = test system: Caco-2, human colon carcinoma cells; test: Proliferation assay (Assay 5), Caco-2; type: cell-based; settings: 96 h, Caco-2, 4 days, read-out: Concentration of the half-maximal inhibition of the cell proliferation, IC50
From the text: as §1

[6] = test system: B16F10, murine melanoma cell; test: Proliferation assay (Assay 5), B16F10; type: cell-based; settings: Mus musculus, B16-F10, 96 h; B16F10, 4 days; read-out: Concentration of the half-maximal inhibition of the cell proliferation, IC50
From the text: as §1

CDK4/CycD1 = CDK4/CycD1 (Homo sapiens (Human), UniProt P11802); test: CDK4/CycD kinase assay (Assay 3); type: biochemical; settings: read-out: CDK4/CycD (Assay 3) Concentration of the half-maximal inhibition of the enzyme activity, IC50
Description: Recombinant CDK4 and CycD1-GST fusion proteins, purified from baculovirus-infected insect cells (Sf9), were purchased from ProQinase GmbH, Freiburg. CDK4/CycD1 (250 ng/measuring point) was incubated for 3 hours at 22° C. in the presence of different concentrations of test substances (0 μM, and within the range 0.001-10 μM) in 31 μl of assay buffer [50 mM Hepes pH 7.0; 2.5 mM MnCl; 0.05 mM Na ortho-vanadate; 1.0 mM dithiothreitol; 0.25 μM adenosine trisphosphate (ATP); 0.5 μM biotinylated myelin basic protein (bio-MPB, GE Healthcare); 0.05 μCi/measuring point ^33P-gamma ATP; 0.005% NP40; 0.025% bovine serum albumin; 3% dimethyl sulphoxide]. The reaction was stopped by adding 50 μl of stop-mix [100 μM ATP; 10 mM EDTA pH 8.0; 0.2% Triton X100; 0.125 mg of streptavidin-SPA Beads (GE Healthcare)]. After incubation for 10 min at room temperature, the SPA beads were pelleted by centrifugation (10 min; 1500 g). The amount of incorporated ^33P (substrate phosphorylation) was determined by scintillation measurement in a beta-radiation measuring instrument (Microbeta, Perkin Elmer).

[7] = target: VEGF receptor tyrosine kinase-2 (VEGF-R2) (Homo sapiens (Human), UniProt P35968); test: VEGF receptor-2 kinase assay (Assay 4); type: biochemical; settings: read-out: VEGF-R2 (Assay 4) Concentration of the half-maximal inhibition of the enzyme activity, IC50
Description: Recombinant VEGF receptor tyrosine kinase-2 was purified as GST fusion protein from baculovirus-infected insect cells (Sf9). Poly-(Glu4Tyr), which was used as kinase substrate, was purchased from Sigma.
VEGF receptor tyrosine kinase (90 ng/measuring point) was incubated for 10 min at 22° C. in the presence of different concentrations of test substances (0 μM, and within the range 0.001-10 μM) in 30 μl of assay buffer [40 mM Tris/HCl pH 5.5; 10 mM MgCl2; 1 mM MnCl2; 3 μM Na ortho-vanadate; 1.0 mM dithiothreitol; 8 μM adenosine trisphosphate (ATP); 0.96 μg/measuring point poly-(Glu4Tyr); 0.2 μCi/measuring point ^33P-gamma ATP; 1.4% dimethyl sulphoxide]. The reaction was stopped by adding EDTA solution (250 mM; pH 8.0; 15 μl/measuring point).
as §2

[8] = Permeability assay (Assay 6), Caco-2 monolayer; type: in vitro ADME; settings: human
Description: The Caco-2 monolayer is a barrier between 2 compartments. The cells here behave similarly to the small intestine cells. Active ingredients can be transported either paracellularly or transcellularly. Here, the transport takes place in most cases from apical (luminal) to basolateral (serosal). In the case of p-glycoprotein substrates, back-transport from basolateral to apical is also usually observed.
Experimental procedure: The permeability test is carried out both from apical to basolateral and also from basolateral to apical. For this, two filters are used per substance; incubation takes place over 90 min at 37° C. in a water bath. […] As reference substances, (i) PEG 4000 are used as hydrophilic marker. On account of its high molecular weight, it is unable to permeate into the cell membrane or into the pores of the tight junctions. PEG 4000 is therefore a marker of the intactness of the cell monolayer and the narrowness of the tight junctions. PEG 4000 is not absorbed in humans. (ii) Clonidine is known as completely absorbed substances in people (100%). They serve as markers for very highly permeable substances with Papp values above 100 nm/s. (iii) Digoxin is a known Pgp substrate. […] In the reverse experiment (basolateral to apical), the Papp values should be higher by a factor of about 10 as a result of the active directional transport into the apical compartment.
The permeation coefficient Papp is used to estimate the absorption in people according to the following scheme: […]

Sequence of CDK1/CycB (P06493 whole entry): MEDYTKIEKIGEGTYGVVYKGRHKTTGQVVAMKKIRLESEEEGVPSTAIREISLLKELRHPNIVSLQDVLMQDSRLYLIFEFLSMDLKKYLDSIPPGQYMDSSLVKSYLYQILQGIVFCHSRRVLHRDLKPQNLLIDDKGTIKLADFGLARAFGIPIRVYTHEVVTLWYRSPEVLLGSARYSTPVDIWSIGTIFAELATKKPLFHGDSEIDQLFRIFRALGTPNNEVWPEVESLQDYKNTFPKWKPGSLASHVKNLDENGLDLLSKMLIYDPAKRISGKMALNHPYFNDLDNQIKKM
Sequence of CDK1/CycB (P14635 whole entry partner): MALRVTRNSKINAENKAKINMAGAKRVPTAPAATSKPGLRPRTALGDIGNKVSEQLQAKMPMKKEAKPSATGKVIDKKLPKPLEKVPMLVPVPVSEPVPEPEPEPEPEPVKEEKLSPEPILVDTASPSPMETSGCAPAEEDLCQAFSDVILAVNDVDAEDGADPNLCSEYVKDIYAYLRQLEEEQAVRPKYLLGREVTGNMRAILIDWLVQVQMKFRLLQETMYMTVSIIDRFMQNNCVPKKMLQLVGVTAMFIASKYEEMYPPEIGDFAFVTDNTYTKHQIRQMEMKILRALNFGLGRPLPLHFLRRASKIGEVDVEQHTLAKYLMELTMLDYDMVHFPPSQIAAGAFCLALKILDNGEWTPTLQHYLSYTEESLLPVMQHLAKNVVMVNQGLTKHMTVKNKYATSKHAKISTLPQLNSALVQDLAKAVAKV
Sequence of CDK4/CycD1 (P11802 whole entry, the tested form may be a part): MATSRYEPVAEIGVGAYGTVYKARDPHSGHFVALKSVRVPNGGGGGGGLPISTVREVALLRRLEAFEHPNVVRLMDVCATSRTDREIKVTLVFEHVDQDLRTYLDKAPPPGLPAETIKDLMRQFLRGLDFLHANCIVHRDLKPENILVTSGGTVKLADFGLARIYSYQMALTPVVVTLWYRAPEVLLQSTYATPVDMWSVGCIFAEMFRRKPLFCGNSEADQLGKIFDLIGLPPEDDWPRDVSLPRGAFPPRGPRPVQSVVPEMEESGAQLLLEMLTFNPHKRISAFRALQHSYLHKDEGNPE
Sequence of CDK4/CycD1 (P24385 whole entry partner, the tested form may be a part): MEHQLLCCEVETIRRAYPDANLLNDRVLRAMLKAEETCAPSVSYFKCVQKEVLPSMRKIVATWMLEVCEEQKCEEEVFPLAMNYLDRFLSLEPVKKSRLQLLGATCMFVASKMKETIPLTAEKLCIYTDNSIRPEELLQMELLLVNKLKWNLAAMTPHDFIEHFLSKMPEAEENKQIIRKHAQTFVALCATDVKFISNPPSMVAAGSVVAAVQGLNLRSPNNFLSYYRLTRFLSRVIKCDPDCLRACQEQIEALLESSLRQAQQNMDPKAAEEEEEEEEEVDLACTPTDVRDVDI
Sequence of VEGF receptor tyrosine kinase-2 (VEGF-R2) (P35968 20-1356, species assumed): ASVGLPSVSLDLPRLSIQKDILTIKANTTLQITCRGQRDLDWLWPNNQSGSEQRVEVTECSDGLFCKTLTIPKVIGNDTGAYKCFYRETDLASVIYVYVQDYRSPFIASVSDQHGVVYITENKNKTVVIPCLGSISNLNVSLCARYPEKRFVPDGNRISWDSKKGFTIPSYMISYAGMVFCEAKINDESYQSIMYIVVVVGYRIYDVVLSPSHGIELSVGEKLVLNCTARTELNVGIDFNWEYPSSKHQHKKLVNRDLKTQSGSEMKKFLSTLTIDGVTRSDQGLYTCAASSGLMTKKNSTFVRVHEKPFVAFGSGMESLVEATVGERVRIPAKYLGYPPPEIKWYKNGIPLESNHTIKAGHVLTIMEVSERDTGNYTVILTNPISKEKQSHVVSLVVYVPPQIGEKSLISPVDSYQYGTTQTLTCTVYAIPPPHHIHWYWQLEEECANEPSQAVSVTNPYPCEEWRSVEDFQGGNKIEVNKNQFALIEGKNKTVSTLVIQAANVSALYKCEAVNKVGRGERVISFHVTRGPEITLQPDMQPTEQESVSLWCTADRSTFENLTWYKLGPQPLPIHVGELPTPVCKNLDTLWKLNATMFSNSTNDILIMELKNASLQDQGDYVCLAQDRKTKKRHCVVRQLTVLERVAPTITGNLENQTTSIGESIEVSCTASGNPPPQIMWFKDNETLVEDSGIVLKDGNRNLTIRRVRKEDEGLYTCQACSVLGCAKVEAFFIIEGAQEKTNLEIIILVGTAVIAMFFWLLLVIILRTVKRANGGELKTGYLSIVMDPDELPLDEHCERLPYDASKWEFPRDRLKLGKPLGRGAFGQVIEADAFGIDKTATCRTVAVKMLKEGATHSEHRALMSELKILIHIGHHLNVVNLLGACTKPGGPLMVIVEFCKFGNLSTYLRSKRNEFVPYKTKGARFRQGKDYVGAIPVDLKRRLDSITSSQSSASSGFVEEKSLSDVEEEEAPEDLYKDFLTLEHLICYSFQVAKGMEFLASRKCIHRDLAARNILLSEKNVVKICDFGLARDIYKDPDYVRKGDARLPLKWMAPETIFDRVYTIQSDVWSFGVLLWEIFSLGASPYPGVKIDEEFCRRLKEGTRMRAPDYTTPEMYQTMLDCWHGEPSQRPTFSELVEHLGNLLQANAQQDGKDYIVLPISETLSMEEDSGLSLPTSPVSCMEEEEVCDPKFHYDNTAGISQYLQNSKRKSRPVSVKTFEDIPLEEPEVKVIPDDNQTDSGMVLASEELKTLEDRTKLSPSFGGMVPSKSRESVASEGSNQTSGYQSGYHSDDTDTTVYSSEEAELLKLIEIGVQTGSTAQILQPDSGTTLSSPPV

| Structure (SMILES) | IC50 (CDK1/CycB) | IC50 (CDK2/CycE) | IC50 ([1]; 96 h, MCF7, 4 days) | also measured |
| --- | --- | --- | --- | --- |
| CS(=O)(=O)c1ccc(Nc2ncc(C(F)(F)F)c(OC3CCCCC3)n2)cc1 [Example 16, (4-Cyclohexyloxy-5-trifluoromethylpyrimidin-2-yl)(4-methanesulphonylphenyl)amine] | > 1000 nM | 480 nM | 1400 nM |  |
| CS(=O)(=O)c1ccc(Nc2ncc(C(F)(F)F)c(OCCC(F)(F)F)n2)cc1 [Example 14, (4-Methanesulphonylphenyl)[5-trifluoromethyl-4-(3,3,3-trifluoropropoxy)pyrimidin-2-yl]amine] | 740 nM | 94 nM |  | IC50 ([1]; MCF7, 96 h): 2200 nM |
| C#CCOc1nc(Nc2ccc(S(C)(=O)=O)cc2)ncc1C(F)(F)F [Example 13, (4-Methanesulphonylphenyl)(4-prop-2-ynyloxy-5-trifluoromethylpyrimidin-2-yl)amine] | 130 nM | 25 nM |  | IC50 ([1]; MCF7, 96 h): 740 nM |
| C[C@@H](Oc1nc(Nc2ccc(S(=O)(=O)C3CC3)cc2)ncc1C(F)(F)F)C(C)(C)O [Example 4, (R)-3-[2-(4-Cyclopropanesulphonylphenylamino)-5-tri-fluoromethylpyrimidin-4-yloxy]-2-methylbutan-2-ol] | 36 nM | 21 nM | 105 nM | IC50 [2]: 142 nM; IC50 [3]: 226 nM; IC50 [4]: 194 nM; IC50 [5]: 205 nM; IC50 [6]: 287 nM |
| C[C@@H](O)[C@@H](C)Nc1nc(Nc2ccc(S(C)(=O)=O)cc2)ncc1C(F)(F)F [C2, (2R,3R)-3-[2-(4-Methanesulphonylphenylamino)-5-trifluoromethylpyrimidin-4-ylamino]butan-2-ol, reference compound] | 4 nM | 4 nM | 43 nM | IC50 (CDK4/CycD1): 35 nM; IC50 [7]: 92 nM; IC50 [2]: 32 nM; IC50 [3]: 34 nM; IC50 [4]: 75 nM; IC50 [5]: 76 nM; IC50 [6]: 89 nM; efflux ratio at 90 min ([8]; Caco-2, read-out: ratio (b-a)/(a-b)): 1; Papp A→B at 90 min ([8]; Caco-2, 90 min, 37° C., read-out: Permeation coefficient, Papp apical-basolateral (a-b)): 18 ×10⁻⁶ cm/s; Papp B→A at 90 min ([8]; Caco-2, 90 min, 37° C., read-out: Permeation coefficient, Papp basolateral-apical (b-a)): 17.8 ×10⁻⁶ cm/s |
| C[C@@H](O)[C@@H](C)Oc1nc(Nc2ccc(S(=O)(=O)c3ccccc3)cc2)ncc1C(F)(F)F [Example 5, (2R,3R)-3-[2-(4-Benzenesulphonylphenylamino)-5-tri-fluoromethylpyrimidin-4-yloxy]butan-2-ol] | 41 nM | 36 nM |  |  |
| C=CCOc1nc(Nc2ccc(S(C)(=O)=O)cc2)ncc1C(F)(F)F [Example 15, (4-Allyloxy-5-trifluoromethylpyrimidin-2-yl)(4-methane-sulphonylphenyl)amine] | 280 nM | 49 nM | 1500 nM |  |
| COC[C@@H](C)Oc1nc(Nc2ccc(S(C)(=O)=O)cc2)ncc1C(F)(F)F [Example 12, (4-Methanesulphonylphenyl) [4-((R)-2-methoxy-1-methyl-ethoxy)-5-trifluoromethylpyrimidin-2-yl]amine] | 51 nM | 12 nM | 191 nM |  |
| C[C@@H](Nc1nc(Nc2ccc(S(C)(=O)=O)cc2)ncc1C(F)(F)F)C(C)(C)O [C3, (R)-3-[2-(4-Methanesulphonylphenylamino) 5-trifluoro-methylpyrimidin-4-ylamino]-2-methylbutan-2-ol, reference compound] | 9 nM | 8 nM | 61 nM | IC50 (CDK4/CycD1): 24 nM; IC50 [7]: 190 nM; IC50 [2]: 37 nM; IC50 [3]: 93 nM; IC50 [4]: 60 nM; IC50 [5]: 133 nM; IC50 [6]: 106 nM |
| C[C@@H](O)[C@@H](C)Oc1nc(Nc2ccc(S(=O)(=O)C3CCCC3)cc2)ncc1C(F)(F)F [Example 7, (2R,3R)-3-[2-(4-Cyclopentanesulphonylphenylamino)-5-triluoromethylpyrimidin-4-yloxy]butan-2-ol] | 23 nM | 21 nM |  |  |
| C#CCS(=O)(=O)c1ccc(Nc2ncc(C(F)(F)F)c(O[C@H](C)C(C)(C)O)n2)cc1 [Example 10, (R)-2-Methyl-3-{2-[4-(prop-2-yne-1-sulphonyl)phenylamino]-5-trifluoromethylpyrimidin-4-yloxy}butan-2-ol] | 82 nM | 43 nM |  |  |
| C[C@@H](O)[C@@H](C)Oc1nc(Nc2ccc(S(=O)(=O)CCO)cc2)ncc1C(F)(F)F [Example 11, (2R,3R)-3-{2-[4-(2-Hydroxyethanesulphonyl)phenylamino]-5-trifluoromethylpyrimidin-4-yloxy}butan-2-ol] | 3 nM | 3 nM |  |  |
| C=CCS(=O)(=O)c1ccc(Nc2ncc(C(F)(F)F)c(O[C@H](C)C(C)(C)O)n2)cc1 [Example 8, (R)-2-Methyl-3-{2-[4-(prop-2-ene-1-sulphonyl)phenylamino]-5-trifluoromethylpyrimidin-4-yl-oxy}butan-2-ol] | 43 nM | 11 nM |  |  |
| C[C@@H](O)[C@@H](C)Oc1nc(Nc2ccc(S(=O)(=O)C(F)F)cc2)ncc1C(F)(F)F [Example 6, (2R,3R)-3-{2-[4-(Difluoromethanesulphonyl)phenylamino]-5-trifluoromethylpyrimidin-4-yloxy}butan-2-ol] | 24 nM | 12 nM |  |  |
| CC(C)S(=O)(=O)c1ccc(Nc2ncc(C(F)(F)F)c(O[C@H](C)[C@@H](C)O)n2)cc1 [Example 9, (2R,3R)-3-{2-[4-(Propane-2-sulphonyl)phenylamino]-5-trifluoromethylpyrimidin-4-yloxy}butan-2-ol] | 12 nM | 6 nM |  |  |

— patent US8802686B2, “Sulfone-substituted anilinopyrimidine derivatives as CDK inhibitors, the production thereof, and use as a medicine” (Bayer Intellectual Property GmbH, priority 2008, dated 2014)
